Source: ChEMBL document CHEMBL1145388, “Pyridazinoquinolinetriones as NMDA glycine-site antagonists with oral antinociceptive activity in a model of neuropathic pain” (J Med Chem, 2007)

Key:
in vivo = conditions: Sprague-Dawley, rat, po, 10 mg/kg
physchem = conditions: octanol/water, pH 7.4

SMILES | bioavailability at 24 h (in vivo) [%] | logD (physchem)
O=c1[nH]n(CC#Cc2ccccc2)c(=O)c2c(=O)c3ccc(Cl)cc3[nH]c12 | 16 | –
C#CC(C)n1[nH]c(=O)c2[nH]c3cc(Cl)ccc3c(=O)c2c1=O (stereo not drawn) | – | < 0.5
CC(c1cc2ccccc2o1)n1[nH]c(=O)c2[nH]c3cc(Cl)ccc3c(=O)c2c1=O (stereo not drawn) | – | 2
COC(=O)c1ccc(C(C)n2[nH]c(=O)c3[nH]c4cc(Cl)ccc4c(=O)c3c2=O)cc1 (stereo not drawn) | – | 1.3
COCCNC(=O)c1cccc(Cn2[nH]c(=O)c3[nH]c4cc(Cl)ccc4c(=O)c3c2=O)c1 | – | 1.2
CN(C)C(=O)Nc1ccc(Cn2[nH]c(=O)c3[nH]c4cc(Cl)ccc4c(=O)c3c2=O)cc1 | < 1 | 1.1
CC(C#Cc1ccccc1)n1[nH]c(=O)c2[nH]c3cc(Cl)ccc3c(=O)c2c1=O (stereo not drawn) | – | 1.4
Cc1cc(Cn2[nH]c(=O)c3[nH]c4cc(Cl)ccc4c(=O)c3c2=O)oc1C | – | 1
O=c1[nH]n(Cc2cc3ccccc3s2)c(=O)c2c(=O)c3ccc(Cl)cc3[nH]c12 | 12 | –
CC(c1ccncc1)n1[nH]c(=O)c2[nH]c3cc(Cl)ccc3c(=O)c2c1=O.CS(=O)(=O)O (racemic) | 30 | < 0.3

More lines, now with the values ahead:

bioavailability at 24 h (in vivo) [%] | logD (physchem) | SMILES
5 | < 0.3 | CS(=O)(=O)O.O=c1c2ccc(Cl)cc2[nH]c2c(O)nn(Cc3ccncc3)c(=O)c12
37 | < 0.5 | CS(=O)(=O)O.O=c1c2ccc(Cl)cc2[nH]c2c(O)nn(Cc3cnccn3)c(=O)c12
– | < 0.5 | O=c1[nH]n(Cc2nccs2)c(=O)c2c(=O)c3ccc(Cl)cc3[nH]c12
25 | 2.1 | O=c1c2ccc(Cl)cc2[nH]c2c(O)nn(Cc3cc4ccccc4o3)c(=O)c12
– | < 0.5 | Cc1ccc(Cn2nc(O)c3[nH]c4cc(Cl)ccc4c(=O)c3c2=O)o1
1.2 | 1.2 | O=c1c2ccc(Cl)cc2[nH]c2c(O)nn(Cc3ccsc3)c(=O)c12
– | 0.9 | CC(c1ccsc1)n1[nH]c(=O)c2[nH]c3cc(Cl)ccc3c(=O)c2c1=O (stereo not drawn)
28 | 1.4 | Cc1ccsc1Cn1[nH]c(=O)c2[nH]c3cc(Cl)ccc3c(=O)c2c1=O
7 | 1.17 | COC(=O)c1ccc(Cn2nc(O)c3[nH]c4cc(Cl)ccc4c(=O)c3c2=O)cc1
– | < 0.5 | O=C(O)c1ccc(Cn2[nH]c(=O)c3[nH]c4cc(Cl)ccc4c(=O)c3c2=O)cc1
– | 1.9 | CC(C#Cc1ccsc1)n1[nH]c(=O)c2[nH]c3cc(Cl)ccc3c(=O)c2c1=O (stereo not drawn)
– | 2.4 | CC(C#Cc1cccs1)n1[nH]c(=O)c2[nH]c3cc(Cl)ccc3c(=O)c2c1=O (stereo not drawn)
40 | < 0.5 | O=c1[nH]n(Cc2ccno2)c(=O)c2c(=O)c3ccc(Cl)cc3[nH]c12
– | 0.6 | CCC(c1ccncc1)n1[nH]c(=O)c2[nH]c3cc(Cl)ccc3c(=O)c2c1=O (racemic)
